Paper PMC3574584 (Journal of medicinal chemistry, 2013)
Entries after “also recorded” stand apart in the source; their conditions may differ.

System: Raw264.7 cells expressing mPTPB
Test: Akt phosphorylation by Western blotting
Type: cell-based, mouse
Settings: mPTPB expressing Raw264.7 macrophages, IFN-γ 200 U/ml; 6c at 240 nM

Structure (SMILES)	Akt activity (phospho-Akt)
O=C(O)c1cc2c(CCc3ccc(OC(F)(F)F)cc3)c(-c3ccccc3)oc2cc1O [Compound 6c, 6-hydroxy-2-phenyl-3-(4-(trifluoromethoxy)phenethyl)benzofuran-5-carboxylic acid]	unable to reverse
O=C(O)c1cc2c(C#Cc3cccc(C(F)(F)F)c3)c(-c3ccccc3)oc2cc1O [Compound 4g, 6-hydroxy-2-phenyl-3-((3-(trifluoromethyl)phenyl)ethynyl)benzofuran-5-carboxylic acid]	normalized; also recorded: blocks
